Measured values taken from publication PMC2759397 (Bioorganic & medicinal chemistry, 2009).

What was measured:
δ opioid receptors = δ opioid receptors (Mus musculus, UniProt P32300); conditions: read-out: Agonist activity (% inhibition of contraction at 1 µM), MVD
μ opioid receptors [1] = biological target: T1, μ opioid receptors (Cavia porcellus, UniProt A0ACM8Q262); design: species or system guinea pig; conditions: read-out: Agonist activity (% inhibition of contraction at 1 µM), GPI/LMMP
delta opioid receptors = delta opioid receptors (Mus musculus, UniProt P32300)
Sequence of delta opioid receptors (P32300 whole entry): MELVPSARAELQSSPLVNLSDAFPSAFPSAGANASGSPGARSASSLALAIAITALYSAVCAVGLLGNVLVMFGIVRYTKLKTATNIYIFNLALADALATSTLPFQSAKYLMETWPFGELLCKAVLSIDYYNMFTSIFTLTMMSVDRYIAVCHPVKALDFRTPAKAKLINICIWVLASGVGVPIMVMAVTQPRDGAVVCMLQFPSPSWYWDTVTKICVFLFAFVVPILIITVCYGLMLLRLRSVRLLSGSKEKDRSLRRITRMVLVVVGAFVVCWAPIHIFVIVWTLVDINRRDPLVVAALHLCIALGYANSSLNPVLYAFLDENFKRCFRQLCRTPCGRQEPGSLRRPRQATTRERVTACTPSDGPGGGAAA

μ opioid receptors [2] = biological target: T1, μ opioid receptors; design: species or system guinea pig
opioid receptors = test: Radioligand competition assay, [3H]diprenorphine, rat brain membranes; assay type: binding; conditions: data not shown

Sequence of δ opioid receptors (P32300 whole entry): as above
T1 sequence (A0ACM8Q262 1-400): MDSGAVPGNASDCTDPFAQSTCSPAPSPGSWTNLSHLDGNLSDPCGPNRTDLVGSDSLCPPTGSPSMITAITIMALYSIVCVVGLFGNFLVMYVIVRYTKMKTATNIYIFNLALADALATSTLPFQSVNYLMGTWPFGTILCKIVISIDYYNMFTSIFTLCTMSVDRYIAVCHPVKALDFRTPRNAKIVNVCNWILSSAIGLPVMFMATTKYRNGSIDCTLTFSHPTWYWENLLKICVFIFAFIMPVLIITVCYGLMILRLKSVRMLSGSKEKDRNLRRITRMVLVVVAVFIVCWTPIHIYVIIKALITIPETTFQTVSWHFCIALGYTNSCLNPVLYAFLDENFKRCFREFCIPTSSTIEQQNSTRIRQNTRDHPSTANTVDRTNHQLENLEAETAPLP

| Compound | inhibition at 1 µM (δ opioid receptors) [%] | inhibition at 1 µM (μ opioid receptors [1]) [%] | DPDPE Antagonism at 1 µM in the MVD (delta opioid receptors) | PL-017 Antagonism at 1 µM in the GPI/LMMP (μ opioid receptors [2]) | inhibition constants against binding of [3H]diprenorphine (opioid receptors) |
| --- | --- | --- | --- | --- | --- |
| Cc1c(CC(=O)O)c2ccccc2n1C1CCN(C)CC1 [Compound 9a, [2-methyl-1-(1-methyl-piperidin-4-yl)-1H-indol-3-yl]-acetic acid] | 17.9 | 0.7 | none at 1 µM | none at 1 µM |  |
| Cc1c(CC(=O)O)c2ccccc2n1C1CCN(CCc2ccccc2)CC1 [Compound 9c, [2-methyl-1-(1-phenethyl-piperidin-4-yl)-1H-indol-3-yl]-acetic acid] | 19.5 | 3.1 | none at 1 µM | none at 1 µM | micromolar range |
| COc1ccc2c(c1)c(CC(=O)O)c(C)n2C1CCN(C)CC1 [Compound 9d, [5-methoxy-2-methyl-1-(1-methyl-piperidin-4-yl)-1H-indol-3-yl]-acetic acid] | 2.8 | 0 | none at 1 µM | none at 1 µM |  |
| COc1ccc2c(c1)c(CC(=O)O)c(C)n2C1CCN(CCc2ccccc2)CC1 [Compound 9f, [5-methoxy-2-methyl-1-(1-phenethyl-piperidin-4-yl)-1H-indol-3-yl]-acetic acid] | 0 | 6 | none at 1 µM | none at 1 µM | micromolar range |
